Earlier results in patent EP0716679B1, “METHOD OF CLEANING VINYL SURFACES BY MEANS OF MILDLY ACIDIC HARD SURFACE CLEANING COMPOSITIONS CONTAINING AMINE OXIDE DETERGENT SURFACTANTS” (THE PROCTER & GAMBLE COMPANY, priority 1993, dated 1995).
Where two headings read alike, the source gives them in different places.

Row | pKa of acidifying agent (first pKa) | pKa of acidifying agent (fourth pKa printed) | pKa of acidifying agent (second pKa) | pKa of acidifying agent (third pKa printed) | SMILES
1 | 1.7 | 10.6 | 2.6 | 6.3 | O=C(O)CN(CCN(CC(=O)O)CC(=O)O)CC(=O)O [Ethylene diamine tetraacetic acid]

Row | SMILES | pKa of acidifying agent (first pKa) | pKa of acidifying agent (fourth pKa printed) | pKa of acidifying agent (second pKa) | pKa of acidifying agent (third pKa printed)
3 | O=C(O)CC(O)C(=O)O (stereo not shown) [Malic acid] | – | – | 5.05 | –
